Measurements reported in patent publication US10544149B2, “Bicyclic alkyne derivatives and uses thereof” (Agency for Science, Technology and Research, priority 2013, dated 2020).
Where a name gives a salt, the structure may show the parent alone.

How the values were obtained:
MNK2 = MNK2 (Homo sapiens, UniProt Q9HBH9); test: MNK2 enzymatic assay; type: biochemical
[1] = test system: eIF4e phosphorylation in Hela cell line; test: eIF4e phosphorylation inhibition in Hela cell line; type: cell-based; details: Homo sapiens, cellular
MNK1 = MNK1 (Homo sapiens, UniProt Q9BUB5); test: MNK1 enzymatic assay; type: biochemical
Chain of MNK1 (Q9BUB5 whole entry): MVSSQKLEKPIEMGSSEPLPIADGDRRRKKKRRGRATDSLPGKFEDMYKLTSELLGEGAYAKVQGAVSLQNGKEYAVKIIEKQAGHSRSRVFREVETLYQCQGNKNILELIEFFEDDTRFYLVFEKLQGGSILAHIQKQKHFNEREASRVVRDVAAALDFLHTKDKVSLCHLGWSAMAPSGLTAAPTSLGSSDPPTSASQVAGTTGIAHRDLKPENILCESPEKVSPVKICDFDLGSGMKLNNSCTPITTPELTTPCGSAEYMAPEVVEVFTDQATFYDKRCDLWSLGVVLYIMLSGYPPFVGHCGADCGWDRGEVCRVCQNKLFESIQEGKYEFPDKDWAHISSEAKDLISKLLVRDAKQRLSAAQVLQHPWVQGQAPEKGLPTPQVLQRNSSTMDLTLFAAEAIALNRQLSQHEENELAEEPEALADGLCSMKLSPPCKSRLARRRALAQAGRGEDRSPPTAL

Chain of MNK2 (Q9HBH9 whole entry): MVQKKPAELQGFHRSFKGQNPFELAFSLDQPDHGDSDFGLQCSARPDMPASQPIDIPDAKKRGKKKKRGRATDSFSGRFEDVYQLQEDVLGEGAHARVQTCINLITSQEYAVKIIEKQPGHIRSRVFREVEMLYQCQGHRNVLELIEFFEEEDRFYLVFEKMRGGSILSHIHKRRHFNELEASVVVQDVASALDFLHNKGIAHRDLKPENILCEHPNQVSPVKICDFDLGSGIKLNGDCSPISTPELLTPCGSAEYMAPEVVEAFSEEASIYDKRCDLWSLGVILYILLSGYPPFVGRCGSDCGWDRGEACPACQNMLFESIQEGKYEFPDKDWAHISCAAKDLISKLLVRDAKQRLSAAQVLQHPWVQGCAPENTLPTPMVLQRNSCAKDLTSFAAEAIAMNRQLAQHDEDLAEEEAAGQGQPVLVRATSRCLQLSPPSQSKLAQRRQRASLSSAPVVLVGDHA

Row | IC50 (MNK2) [µM] | IC50 [1] [µM] | IC50 (MNK1) [µM] | Compound
1 | < 0.5 | < 5 | < 0.5 | O=C(c1ccc(-c2ccc3ncc(C#Cc4ccnc(Nc5ccccc5-c5ccccc5)c4)n3n2)cc1)N1CCOCC1 [Example 060, (4-(3-((2-(biphenyl-2-ylamino)pyridin-4-yl)ethynyl)imidazo[1,2-b]pyridazin-6-yl)phenyl)(morpholino)methanone]
2 | < 0.5 | < 5 | < 0.5 | O=C(c1ccc(-c2ccc3ncc(C#Cc4ccnc(-c5ccccc5)c4)n3n2)cc1)N1CCOCC1 [Example 070, morpholino(4-(3-((2-phenylpyridin-4-yl)ethynyl)imidazo[1,2-b]pyridazin-6-yl)phenyl)methanone]
3 | < 0.5 | < 5 | < 0.5 | Nc1cc(C#Cc2cnc3ccc(-c4ccc(C(=O)N5CCOCC5)cc4)cn23)ccn1 [Example 096]
4 | < 0.5 | < 5 | < 0.5 | Nc1cc(C#Cc2cnn3ccc(-c4ccc(C(=O)N5CCOCC5)cc4F)nc23)ccn1 [Example 123, (4-(3-((2-aminopyridin-4-yl)ethynyl)pyrazolo[1,5-a]pyrimidin-5-yl)-3-fluorophenyl)(morpholino) methanone formic acid salt]
5 | < 0.5 | < 5 | < 0.5 | Nc1cc(C#Cc2cnc3ccc(-c4ccc(C(=O)N5CCOCC5)cc4)nn23)c2cc[nH]c2n1 [Example 017, (4-(3-((6-amino-1H-pyrrolo[2,3-b]pyridin-4-yl)ethynyl)imidazo[1,2-b]pyridazin-6-yl)phenyl)(morpholino)methanone]
6 | < 0.5 | < 5 | < 0.5 | O=C(c1ccc(-c2ccc3ncc(C#Cc4c(C(F)(F)F)cnc5[nH]ccc45)n3n2)cc1)N1CCOCC1 [Example 031, morpholino(4-(3-((5-(trifluoromethyl)-1H-pyrrolo[2,3-b]pyridin-4-yl)ethynyl)imidazo[1,2-b]pyridazin-6-yl)phenyl)methanone]
7 | < 0.5 | < 5 | < 0.5 | O=C(CCl)Nc1cc(C#Cc2cnc3ccc(-c4ccc(C(=O)N5CCOCC5)cc4)nn23)ccn1 [Example 043]
8 | < 0.5 | < 5 | < 0.5 | O=C(Nc1cc(C#Cc2cnc3ccc(-c4ccc(C(=O)N5CCOCC5)cc4)nn23)ccn1)c1ccncc1 [Example 064, N-(4-((6-(4-(morpholine-4-carbonyl)phenyl)imidazo[1,2-b]pyridazin-3-yl)ethynyl)pyridin-2-yl)isonicotinamide]
9 | < 0.5 | < 5 | < 0.5 | CN1CCN(C(=O)c2ccc(-c3ccc4ncc(C#Cc5ccccc5)n4n3)cc2)CC1 [Example 002, (4-methylpiperazin-1-yl) (4-(3-(phenylethynyl)imidazo[1,2-b]pyridazin-6-yl)phenyl)methanone]
10 | < 0.5 | < 5 | < 0.5 | Cc1ccccc1Nc1cc(C#Cc2cnc3ccc(-c4ccc(C(=O)N5CCNCC5)cc4)cn23)ccn1 [Example 106, piperazin-1-yl(4-(3-((2-(o-tolylamino)pyridin-4-yl)ethynyl)imidazo[1,2-a]pyridin-6-yl)phenyl)methanone]
11 | < 0.5 | < 5 | < 0.5 | CNCC(=O)Nc1cc(C#Cc2cnc3ccc(-c4ccc(C(=O)N5CCOCC5)cc4)nn23)ccn1 [Example 044, 2-(methylamino)-N-(4-((6-(4-(morpholine-4-carbonyl)phenyl)imidazo[1,2-b]pyridazin-3-yl)ethynyl)pyridin-2-yl)acetamide]
12 | < 0.5 | < 5 | < 0.5 | Cc1cnccc1C#Cc1cnc2ccc(-c3ccc(C(=O)N4CCOCC4)cc3)cn12 [Example 095, (4-(3-((3-methylpyridin-4-yl)ethynyl)imidazo[1,2-a]pyridin-6-yl)phenyl) (morpholino)methanone]
